Patent publication US20190038588A1, “NOVEL CLASS OF COMPOUNDS FOR THE TREATMENT OF CARDIOVASCULAR DISEASE” (STICHTING KATHOLIEKE UNIVERSITEIT, priority 2016, published 2019)
Marks after values point to notes of the source that are not given here.

Experiments:
[1] = target: T1, mitochondrial complex III (Mus musculus, UniProt P00158); test: Complex III enzyme activity in mitochondrial fractions of C2C12 cells (cytochrome c reduction at 550 nm); type: biochemical; conditions: compound at 100 μM; background by antimycin A (2.5 μM); n = 3 independent experiments
T1 construct: the supernatant containing the mitochondria was pelleted at 14,000 g; endogenous in cells; host or cells: C2C12 cells, mitochondrial fraction
Description: C2C12 pellets of 20·10^6 cells were snap frozen in liquid nitrogen and kept at −80° C. until use. For preparation of the mitochondrial fractions, tissues and cells were homogenized, resuspended in 10 mM Tris-HCl (pH 7.6), and snap frozen in aliquots as follows: cells were resuspended in 10 mM Tris-HCl and pottered, and sucrose was added (215 mM). The lysate was cleared of unbroken cells by centrifugation (10 minutes 600 g) after which the supernatant containing the mitochondria was pelleted at 14,000 g for 10 minutes, resuspended in 10 mM Tris-HCl (pH 7.6), and snap frozen in aliquots. Complex III enzyme activity was measured spectrophotometrically in duplicate as described before by determination of the cytochrome c reduction at 550 nm (Janssen et al., 2007; Mourmans et al., 1997; Rodenburg, 2011). For these measurements the following substrates were used: decylubiquinol (300 μM) and cytochrome c (50 μM). Background substraction was based on decylubiquinol auto-oxidation rates for FIG. 2, and on antimycin A (2.5 μM) for table 4. The enzyme activity was determined using the linear domain of the curve. These experiments were generally performed in small reaction volumes to increase throughput. Experiments in larger reaction volumes can improve reliability of obtained values, and are planned.

[2] = target: T2, catalytic domain of the human HMG-CoA reductase (Homo sapiens, UniProt P04035); test: HMG-CoA reductase activity and inhibition assay (Sigma CS-1090 kit, NADPH oxidation at 340 nm); type: biochemical; conditions: for HMGR activity (% of control) Mean (SEM): compound at 300 nM, n = 3 independent experiments
T2 construct: containing the catalytic domain of the human HMG-CoA reductase; purchased Sigma-Aldrich CS-1090
T2 sequence (P04035 426-888 limits assumed): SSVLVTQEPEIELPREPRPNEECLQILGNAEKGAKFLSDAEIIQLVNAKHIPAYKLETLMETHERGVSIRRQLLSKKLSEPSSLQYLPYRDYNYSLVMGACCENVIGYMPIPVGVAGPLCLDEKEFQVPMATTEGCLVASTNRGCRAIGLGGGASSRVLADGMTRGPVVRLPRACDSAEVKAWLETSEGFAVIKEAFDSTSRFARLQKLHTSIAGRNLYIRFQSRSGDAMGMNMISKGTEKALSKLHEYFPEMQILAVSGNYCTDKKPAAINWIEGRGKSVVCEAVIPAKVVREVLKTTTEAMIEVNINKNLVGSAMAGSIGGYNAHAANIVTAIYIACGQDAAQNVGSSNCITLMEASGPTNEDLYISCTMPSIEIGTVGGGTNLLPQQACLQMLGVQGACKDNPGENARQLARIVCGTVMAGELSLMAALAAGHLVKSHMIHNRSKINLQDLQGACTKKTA
Description: The human HMG-CoA reductase activity and inhibition assays were performed using the HMG-CoA reductase Assay Kit from Sigma-Aldrich (Sigma CS-1090), containing the catalytic domain of the human HMG-CoA reductase. Enzyme activity was determined spectrophotometrically, measuring the oxidation of NADPH at 340 nm. The reaction mixture contained: 0.13 mM HMG-CoA, HMG-CoA reductase, and 50 mM Tris-HCl, (pH 7.5). After 15 min incubation at 37° C., the reaction was started with the addition of 0.13 mM NADPH, and monitored for 30 min. The enzyme activity was determined using the linear domain of the curve. These experiments were generally performed in small reaction volumes to increase throughput. Experiments in larger reaction volumes can improve reliability of obtained values, and are planned.

For `CC(C)c1c(C(=O)Nc2ccccc2)c(-c2ccccc2)c(-c2ccc(F)cc2)n1CC[C@@H](O)C[C@@H](O)CC(N)=O` [atorvastatin amide, 1-((3R,5R)-7-amino-3,5-dihydroxy-7-oxoheptyl)-5-(4-fluorophenyl)-2-isopropyl-N,4-diphenyl-1H-pyrrole-3-carboxamide], the “complex III activity (% of control) Mean (SEM)” value [1] was 54.34 (7.70) % of control and the “HMGR activity (% of control) Mean (SEM)” value [2] was 97.37 (3.89) % of control.

In the case of `CC(C)c1c(C(=O)Nc2ccccc2)c(-c2ccccc2)c(-c2ccc(F)cc2)n1CC[C@@H](O)C[C@@H](O)CC(=O)O` [atorvastatin carboxylic acid, reference compound], the “HMGR activity (% of control) Mean (SEM)” value [2] is reported as 24.39 (8.91) % of control.

In the case of `CC(C)c1c(C(=O)Nc2ccccc2)c(-c2ccccc2)c(-c2ccc(F)cc2)n1CC[C@@H](O)C[C@@H](O)CC(=O)NO` [atorvastatin hydroxamic acid, 1-((3R,5R)-3,5-dihydroxy-7-(hydroxyamino)-7-oxoheptyl)-5-(4-fluorophenyl)-2-isopropyl-N,4-diphenyl-1H-pyrrole-3-carboxamide], the “complex III activity (% of control) Mean (SEM)” value [1] is reported as 105.60 (13.57) % of control and the “HMGR activity (% of control) Mean (SEM)” value [2] is reported as 60.87 (4.50) % of control.

With `CC(C)c1c(C(=O)Nc2ccccc2)c(-c2ccccc2)c(-c2ccc(F)cc2)n1CC[C@@H]1C[C@H](O)CC(=O)O1` [atorvastatin lactone, 5-(4-fluorophenyl)-1-(2-((2R,4S)-4-hydroxy-6-oxotetrahydro-2H-pyran-2-yl)ethyl)-2-isopropyl-N,4-diphenyl-1H-pyrrole-3-carboxamide, reference compound] the “complex III activity (% of control) Mean (SEM)” value [1] was 80.98 (3.75) % of control.

In the case of `CC[C@H](C)C(=O)O[C@H]1C[C@@H](C)C=C2C=C[C@H](C)[C@H](CC[C@@H](O)C[C@@H](O)CC(N)=O)[C@H]21` [lovastatin amide, (1S,3R,7S,8S,8aR)-8-((3R,5R)-7-amino-3,5-dihydroxy-7-oxoheptyl)-3,7-dimethyl-1,2,3,7,8,8a-hexahydronaphthalen-1-yl (S)-2-methylbutanoate], the “complex III activity (% of control) Mean (SEM)” value [1] is reported as 104.10 (12.47) % of control and the “HMGR activity (% of control) Mean (SEM)” value [2] is reported as 102.30 (10.00) % of control.

`CC[C@H](C)C(=O)O[C@H]1C[C@@H](C)C=C2C=C[C@H](C)[C@H](CC[C@@H](O)C[C@@H](O)CC(=O)O)[C@H]21` [lovastatin carboxylic acid, reference compound] was tested, and the “HMGR activity (% of control) Mean (SEM)” value [2] was 68.18 (14.81) % of control.

For `CC[C@H](C)C(=O)O[C@H]1C[C@@H](C)C=C2C=C[C@H](C)[C@H](CC[C@@H](O)C[C@@H](O)CC(=O)NO)[C@H]21` [lovastatin hydroxamic acid, (1S,3R,7S,8S,8aR)-8-((3R,5R)-3,5-dihydroxy-7-(hydroxyamino)-7-oxoheptyl)-3,7-dimethyl-1,2,3,7,8,8a-hexahydronaphthalen-1-yl (S)-2-methylbutanoate], the “complex III activity (% of control) Mean (SEM)” value [1] was 92.95 (10.32) % of control and the “HMGR activity (% of control) Mean (SEM)” value [2] was 70.19 (6.79) % of control.

`CC[C@H](C)C(=O)O[C@H]1C[C@@H](C)C=C2C=C[C@H](C)[C@H](CC[C@@H]3C[C@@H](O)CC(=O)O3)[C@H]21` [lovastatin lactone, reference compound] was tested, and the “complex III activity (% of control) Mean (SEM)” value [1] was 63.21 (3.31) % of control.

In the case of `CC(C)c1nc(N(C)S(C)(=O)=O)nc(-c2ccc(F)cc2)c1/C=C/[C@@H](O)C[C@@H](O)CC(N)=O` [rosuvastatin amide, (3R,5S,E)-7-(4-(4-fluorophenyl)-6-isopropyl-2-(N-methylmethylsulfonamido)-pyrimidin-5-yl)-3,5-dihydroxyhept-6-enamide], the “complex III activity (% of control) Mean (SEM)” value [1] is reported as 94.39 (6.41) % of control and the “HMGR activity (% of control) Mean (SEM)” value [2] is reported as 81.57 (10.29) % of control.

For `CC(C)c1nc(N(C)S(C)(=O)=O)nc(-c2ccc(F)cc2)c1/C=C/[C@@H](O)C[C@@H](O)CC(=O)O` [rosuvastatin carboxylic acid, reference compound], the “HMGR activity (% of control) Mean (SEM)” value [2] was 24.09 (3.30) % of control.

For `CC(C)c1nc(N(C)S(C)(=O)=O)nc(-c2ccc(F)cc2)c1/C=C/[C@@H](O)C[C@@H](O)CC(=O)N(C)C` [rosuvastatin dimethylamide, (3R,5S,E)-7-(4-(4-fluorophenyl)-6-isopropyl-2-(N-methylmethylsulfonamido)-pyrimidin-5-yl)-3,5-dihydroxy-N,N-dimethylhept-6-enamide], the “complex III activity (% of control) Mean (SEM)” value [1] was 88.90 (7.89) % of control and the “HMGR activity (% of control) Mean (SEM)” value [2] was 91.35 (15.32) % of control.

`CC(C)c1nc(N(C)S(C)(=O)=O)nc(-c2ccc(F)cc2)c1/C=C/[C@@H](O)C[C@@H](O)CC(=O)NO` [rosuvastatin hydroxamic acid, (3R,5S,E)-7-(4-(4-fluorophenyl)-6-isopropyl-2-(N-methylmethylsulfonamido)pyrimidin-5-yl)-N,3,5-trihydroxyhept-6-enamide] was tested, and the “complex III activity (% of control) Mean (SEM)” value [1] was 90.25 (7.98) % of control and the “HMGR activity (% of control) Mean (SEM)” value [2] was 72.81 (9.03) % of control.

With `CNC(=O)C[C@H](O)C[C@H](O)/C=C/c1c(-c2ccc(F)cc2)nc(N(C)S(C)(=O)=O)nc1C(C)C` [rosuvastatin methylamide, (3R,5S,E)-7-(4-(4-fluorophenyl)-6-isopropyl-2-(N-methylmethylsulfonamido)-pyrimidin-5-yl)-3,5-dihydroxy-N-methylhept-6-enamide] the “complex III activity (% of control) Mean (SEM)” value [1] was 83.54 (5.98) % of control and the “HMGR activity (% of control) Mean (SEM)” value [2] was 82.82 (12.67) % of control.

For `CC(C)c1nc(N(C)S(C)(=O)=O)nc(-c2ccc(F)cc2)c1/C=C/[C@@H](O)C[C@@H](O)CC#N` [rosuvastatin nitrile, N-(5-((3S,5S,E)-6-cyano-3,5-dihydroxyhex-1-en-1-yl)-4-(4-fluorophenyl)-6-isopropylpyrimidin-2-yl)-N-methylmethanesulfonamide], the “complex III activity (% of control) Mean (SEM)” value [1] was 95.96 (11.43) % of control and the “HMGR activity (% of control) Mean (SEM)” value [2] was 102.50 (7.87) % of control.

`CC(C)c1nc(N(C)S(C)(=O)=O)nc(-c2ccc(F)cc2)c1/C=C/[C@@H](O)C[C@@H](O)c1nc(=O)o[nH]1` [rosuvastatin nor-oxo-oxadiazole, N-(5-((3S,5R,E)-3,5-dihydroxy-5-(5-oxo-2,5-dihydro-1,2,4-oxadiazol-3-yl)pent-1-en-1-yl)-4-(4-fluorophenyl)-6-isopropylpyrimidin-2-yl)-N-methylmethane-sulfonamide] was tested, and the “complex III activity (% of control) Mean (SEM)” value [1] was 143.50 (15.67) % of control and the “HMGR activity (% of control) Mean (SEM)” value [2] was 100.30 (7.82)^a % of control.

In the case of `CC(C)c1nc(N(C)S(C)(=O)=O)nc(-c2ccc(F)cc2)c1/C=C/[C@@H](O)C[C@@H](O)c1nnn[nH]1` [rosuvastatin nor-tetrazole, N-(5-((3S,5R,E)-3,5-dihydroxy-5-(1H-tetrazol-5-yl)pent-1-en-1-yl)-4-(4-fluorophenyl)-6-isopropylpyrimidin-2-yl)-N-methylmethanesulfonamide], the “complex III activity (% of control) Mean (SEM)” value [1] is reported as 134.50 (17.29) % of control and the “HMGR activity (% of control) Mean (SEM)” value [2] is reported as 86.12 (5.73) % of control.

For `CCC(C)(C)C(=O)O[C@H]1C[C@@H](C)C=C2C=C[C@H](C)[C@H](CC[C@@H](O)C[C@@H](O)CC(=O)O)[C@H]21` [simvastatin carboxylic acid, reference compound], the “HMGR activity (% of control) Mean (SEM)” value [2] was 63.10 (10.70) % of control and the IC50 ([2]; dose-response curve of FIG. 2C, 95%-CI printed in the row below) was 39 nM.

In the case of `CCC(C)(C)C(=O)O[C@H]1C[C@@H](C)C=C2C=C[C@H](C)[C@H](CC[C@@H]3C[C@@H](O)CC(=O)O3)[C@H]21` [simvastatin lactone, reference compound], the “complex III activity (% of control) Mean (SEM)” value [1] is reported as 44.55 (6.27) % of control.
